Measurements from ChEMBL document CHEMBL3885861, “Open TG-GATES”.

Species on record: Rattus norvegicus
Assay: Open TG-GATES - Regimen: Daily Repeat
Type: toxicity, organism-based, Sprague-Dawley
Set-up: regimen Daily Repeat, gender Male, age 6 weeks
Details: in vivo, po, route gavage; for APTT / Bas / Eos / Fbg / Hb / Ht / Lym / MCH / MCHC / MCV / Mono / Neu / PT / Plat / RBC / Ret / WBC: tissue Blood; for KIDNEY_L / KIDNEY_R / KIDNEY_TOTAL: tissue Kidney; for LIVER: tissue Liver; for ALP / ALT / AST / BUN / CRE / DBIL / GLC / IP / K / LDH / Na / PL / RALB / TBIL / TC / TG / TP / gamma-GTP: tissue Plasma
[1] = 0 mg/kg, 72 h, dose level Control, time 3 day
[2] = 0 mg/kg, […], dose level Control, time 7 day
[3] = 0 mg/kg, […], dose level Control, time 14 day
[4] = 0 mg/kg, […], dose level Control, time 28 day
[5] = 45 mg/kg, 72 h, dose level Low, time 3 day
[6] = 45 mg/kg, […], dose level Low, time 7 day
[7] = 45 mg/kg, […], dose level Low, time 14 day
[8] = 45 mg/kg, […], dose level Low, time 28 day

## CC(CCc1ccccc1)NCC(O)c1ccc(O)c(C(N)=O)c1 (configuration not stated) [LABETALOL]
[1]
  TERMINAL_BW: 252.2 g
  APTT: 16.5 s
  Bas: 0%
  Eos: 1%
  Fbg: 295.4 mg/dL
  Hb: 13.4 g/dL
  Ht: 38.9%
  Lym: 75.4%
  MCH: 21.3 pg
  MCHC: 34.3%
  MCV: 62.2 fL
  Mono: 3.6%
  Neu: 19.6%
  PT: 12.8 s
  Plat: 116.3 x10_4/uL
  RBC: 627 x10_4/ul
  Ret: 6.4%
  WBC: 105.6 x10_2/uL
  KIDNEY_L: 1.1 g
  KIDNEY_R: 1.1 g
  KIDNEY_TOTAL: 2.2 g
  LIVER: 12.1 g
  ALP: 1730.4 IU/L
  ALT: 44.2 IU/L
  AST: 70 IU/L
  BUN: 15.4 mg/dL
  CRE: 0.2 mg/dL
  DBIL: 0.014 mg/dL
  GLC: 190.6 mg/dL
  IP: 7.8 mg/dL
  K: 4 meq/L
  LDH: 60.6 IU/L
  Na: 143.4 meq/L
  PL: 158 mg/dL
  RALB: 2.7 g/dL
  TBIL: 0.032 mg/dL
  TC: 85.6 mg/dL
  TG: 111.4 mg/dL
  TP: 5.8 g/dL
  gamma-GTP: 1 IU/L
[2]
  TERMINAL_BW: 289.5 g
  APTT: 17.2 s
  Bas: 0%
  Eos: 0.8%
  Fbg: 319.2 mg/dL
  Hb: 13.6 g/dL
  Ht: 38.7%
  Lym: 78.2%
  MCH: 21.4 pg
  MCHC: 35.1%
  MCV: 61 fL
  Mono: 3%
  Neu: 16.8%
  PT: 12.5 s
  Plat: 117.8 x10_4/uL
  RBC: 635.2 x10_4/ul
  Ret: 6%
  WBC: 108.5 x10_2/uL
  KIDNEY_L: 1.2 g
  KIDNEY_R: 1.2 g
  KIDNEY_TOTAL: 2.5 g
  LIVER: 13.1 g
  ALP: 1548.4 IU/L
  ALT: 43.4 IU/L
  AST: 69.8 IU/L
  BUN: 14.2 mg/dL
  CRE: 0.2 mg/dL
  DBIL: 0.012 mg/dL
  GLC: 188.4 mg/dL
  IP: 7.8 mg/dL
  K: 3.8 meq/L
  LDH: 64.6 IU/L
  Na: 143.2 meq/L
  PL: 149.2 mg/dL
  RALB: 2.7 g/dL
  TBIL: 0.034 mg/dL
  TC: 85.4 mg/dL
  TG: 86.8 mg/dL
  TP: 5.8 g/dL
  gamma-GTP: 1 IU/L
[3]
  TERMINAL_BW: 341.4 g
  APTT: 17.8 s
  Bas: 0.2%
  Eos: 1%
  Fbg: 271.4 mg/dL
  Hb: 14.6 g/dL
  Ht: 42.4%
  Lym: 71.8%
  MCH: 21.1 pg
  MCHC: 34.4%
  MCV: 61.5 fL
  Mono: 2.8%
  Neu: 23.8%
  PT: 12.8 s
  Plat: 104.1 x10_4/uL
  RBC: 689 x10_4/ul
  Ret: 4.5%
  WBC: 82.7 x10_2/uL
  KIDNEY_L: 1.3 g
  KIDNEY_R: 1.2 g
  KIDNEY_TOTAL: 2.4 g
  LIVER: 13.9 g
  ALP: 1377.6 IU/L
  ALT: 45.8 IU/L
  AST: 72.4 IU/L
  BUN: 15.2 mg/dL
  CRE: 0.2 mg/dL
  DBIL: 0.014 mg/dL
  GLC: 197 mg/dL
  IP: 6.9 mg/dL
  K: 3.7 meq/L
  LDH: 79.4 IU/L
  Na: 144.6 meq/L
  PL: 146.8 mg/dL
  RALB: 2.8 g/dL
  TBIL: 0.024 mg/dL
  TC: 74 mg/dL
  TG: 120.8 mg/dL
  TP: 6.2 g/dL
  gamma-GTP: 1 IU/L
[4]
  TERMINAL_BW: 418.9 g
  APTT: 18.5 s
  Bas: 0.6%
  Eos: 1.2%
  Fbg: 289 mg/dL
  Hb: 15.1 g/dL
  Ht: 43.5%
  Lym: 76.2%
  MCH: 20.2 pg
  MCHC: 34.8%
  MCV: 58.3 fL
  Mono: 3.2%
  Neu: 18.4%
  PT: 12.9 s
  Plat: 98.3 x10_4/uL
  RBC: 748.2 x10_4/ul
  Ret: 2.5%
  WBC: 98.7 x10_2/uL
  KIDNEY_L: 1.4 g
  KIDNEY_R: 1.4 g
  KIDNEY_TOTAL: 2.9 g
  LIVER: 16.1 g
  ALP: 1192 IU/L
  ALT: 43.2 IU/L
  AST: 67 IU/L
  BUN: 17 mg/dL
  CRE: 0.2 mg/dL
  DBIL: 0.022 mg/dL
  GLC: 199 mg/dL
  IP: 6.5 mg/dL
  K: 3.6 meq/L
  LDH: 63.8 IU/L
  Na: 142.4 meq/L
  PL: 151.2 mg/dL
  RALB: 2.8 g/dL
  TBIL: 0.036 mg/dL
  TC: 77.6 mg/dL
  TG: 143.2 mg/dL
  TP: 6.3 g/dL
  gamma-GTP: 1 IU/L
[5]
  TERMINAL_BW: 254.7 g
  APTT: 16 s
  Bas: 0%
  Eos: 0.8%
  Fbg: 279.4 mg/dL
  Hb: 13.6 g/dL
  Ht: 40.1%
  Lym: 77%
  MCH: 21.7 pg
  MCHC: 33.9%
  MCV: 64.1 fL
  Mono: 3%
  Neu: 18.6%
  PT: 13 s
  Plat: 116.6 x10_4/uL
  RBC: 626.8 x10_4/ul
  Ret: 6.8%
  WBC: 105.9 x10_2/uL
  KIDNEY_L: 1.1 g
  KIDNEY_R: 1.1 g
  KIDNEY_TOTAL: 2.2 g
  LIVER: 11.6 g
  ALP: 1517 IU/L
  ALT: 42.4 IU/L
  AST: 69.8 IU/L
  BUN: 15 mg/dL
  CRE: 0.2 mg/dL
  DBIL: 0.014 mg/dL
  GLC: 186.2 mg/dL
  IP: 7.4 mg/dL
  K: 4 meq/L
  LDH: 64.2 IU/L
  Na: 143.4 meq/L
  PL: 160.8 mg/dL
  RALB: 2.7 g/dL
  TBIL: 0.026 mg/dL
  TC: 87.6 mg/dL
  TG: 116.6 mg/dL
  TP: 5.9 g/dL
  gamma-GTP: 1.2 IU/L
[6]
  TERMINAL_BW: 288.7 g
  APTT: 17.4 s
  Bas: 0%
  Eos: 1%
  Fbg: 315.6 mg/dL
  Hb: 14.1 g/dL
  Ht: 40.9%
  Lym: 73%
  MCH: 21.4 pg
  MCHC: 34.6%
  MCV: 61.9 fL
  Mono: 3.4%
  Neu: 22.2%
  PT: 12.8 s
  Plat: 114.7 x10_4/uL
  RBC: 661 x10_4/ul
  Ret: 5.1%
  WBC: 95.2 x10_2/uL
  KIDNEY_L: 1.1 g
  KIDNEY_R: 1.1 g
  KIDNEY_TOTAL: 2.2 g
  LIVER: 12.4 g
  ALP: 1674.4 IU/L
  ALT: 45 IU/L
  AST: 71.4 IU/L
  BUN: 15.4 mg/dL
  CRE: 0.2 mg/dL
  DBIL: 0.016 mg/dL
  GLC: 192.2 mg/dL
  K: 3.7 meq/L
  LDH: 59.2 IU/L
  Na: 143.2 meq/L
  PL: 163.2 mg/dL
  RALB: 2.7 g/dL
  TBIL: 0.024 mg/dL
  TC: 89.6 mg/dL
  TG: 117.2 mg/dL
  TP: 5.9 g/dL
  gamma-GTP: 1.2 IU/L
[7]
  TERMINAL_BW: 350.6 g
  APTT: 17.7 s
  Bas: 0%
  Eos: 0.8%
  Fbg: 291.6 mg/dL
  Hb: 14.5 g/dL
  Ht: 41.8%
  Lym: 76.4%
  MCH: 21.4 pg
  MCHC: 34.7%
  MCV: 61.5 fL
  Mono: 2.8%
  Neu: 19.6%
  PT: 12.9 s
  Plat: 104.8 x10_4/uL
  RBC: 679.2 x10_4/ul
  Ret: 4.4%
  WBC: 86.7 x10_2/uL
  KIDNEY_L: 1.3 g
  KIDNEY_R: 1.3 g
  KIDNEY_TOTAL: 2.6 g
  LIVER: 12.9 g
  ALP: 1374 IU/L
  ALT: 46.4 IU/L
  AST: 71.8 IU/L
  BUN: 17 mg/dL
  CRE: 0.2 mg/dL
  DBIL: 0.014 mg/dL
  GLC: 191.8 mg/dL
  IP: 8 mg/dL
  K: 3.8 meq/L
  LDH: 57.2 IU/L
  Na: 144.4 meq/L
  PL: 155.4 mg/dL
  RALB: 2.8 g/dL
  TBIL: 0.028 mg/dL
  TC: 76.8 mg/dL
  TG: 131.2 mg/dL
  TP: 6.1 g/dL
  gamma-GTP: 1.2 IU/L
[8]
  TERMINAL_BW: 411.6 g
  APTT: 17.8 s
  Bas: 0.4%
  Eos: 1.4%
  Fbg: 276.4 mg/dL
  Hb: 15.5 g/dL
  Ht: 44.6%
  Lym: 75.6%
  MCH: 19.7 pg
  MCHC: 34.6%
  MCV: 56.9 fL
  Mono: 2.6%
  Neu: 19.4%
  PT: 13.1 s
  Plat: 101.1 x10_4/uL
  RBC: 785.2 x10_4/ul
  Ret: 2.4%
  WBC: 108 x10_2/uL
  KIDNEY_L: 1.4 g
  KIDNEY_R: 1.4 g
  KIDNEY_TOTAL: 2.8 g
  LIVER: 15.8 g
  ALP: 1004.4 IU/L
  ALT: 48.8 IU/L
  AST: 70.4 IU/L
  BUN: 16.6 mg/dL
  CRE: 0.2 mg/dL
  DBIL: 0.018 mg/dL
  GLC: 179.2 mg/dL
  IP: 6.8 mg/dL
  K: 3.7 meq/L
  LDH: 70.6 IU/L
  Na: 143.2 meq/L
  PL: 151.4 mg/dL
  RALB: 2.9 g/dL
  TBIL: 0.038 mg/dL
  TC: 79.2 mg/dL
  TG: 118.2 mg/dL
